Assay results from patent US20240150377A1, “MODULATORS OF CYSTIC FIBROSIS TRANSMEMBRANE CONDUCTANCE REGULATOR” (VERTEX PHARMACEUTICALS INCORPORATED, priority 2020, published 2024).
pEC50: −log10 of the molar value.

How the values were obtained:
CFTR [1] = biological target: T1, CFTR (Homo sapiens, UniProt P13569); assay: Membrane potential dye, Enteroid Assay A; format: cell-based; details: for Ent. A Max Activity: chloride transport as % of triple combination control (Enteroid Assay A); for pEC50: read-out: Ent. A EC50
T1 sequence (P13569 with tags, fused parts or gaps DEL508-508): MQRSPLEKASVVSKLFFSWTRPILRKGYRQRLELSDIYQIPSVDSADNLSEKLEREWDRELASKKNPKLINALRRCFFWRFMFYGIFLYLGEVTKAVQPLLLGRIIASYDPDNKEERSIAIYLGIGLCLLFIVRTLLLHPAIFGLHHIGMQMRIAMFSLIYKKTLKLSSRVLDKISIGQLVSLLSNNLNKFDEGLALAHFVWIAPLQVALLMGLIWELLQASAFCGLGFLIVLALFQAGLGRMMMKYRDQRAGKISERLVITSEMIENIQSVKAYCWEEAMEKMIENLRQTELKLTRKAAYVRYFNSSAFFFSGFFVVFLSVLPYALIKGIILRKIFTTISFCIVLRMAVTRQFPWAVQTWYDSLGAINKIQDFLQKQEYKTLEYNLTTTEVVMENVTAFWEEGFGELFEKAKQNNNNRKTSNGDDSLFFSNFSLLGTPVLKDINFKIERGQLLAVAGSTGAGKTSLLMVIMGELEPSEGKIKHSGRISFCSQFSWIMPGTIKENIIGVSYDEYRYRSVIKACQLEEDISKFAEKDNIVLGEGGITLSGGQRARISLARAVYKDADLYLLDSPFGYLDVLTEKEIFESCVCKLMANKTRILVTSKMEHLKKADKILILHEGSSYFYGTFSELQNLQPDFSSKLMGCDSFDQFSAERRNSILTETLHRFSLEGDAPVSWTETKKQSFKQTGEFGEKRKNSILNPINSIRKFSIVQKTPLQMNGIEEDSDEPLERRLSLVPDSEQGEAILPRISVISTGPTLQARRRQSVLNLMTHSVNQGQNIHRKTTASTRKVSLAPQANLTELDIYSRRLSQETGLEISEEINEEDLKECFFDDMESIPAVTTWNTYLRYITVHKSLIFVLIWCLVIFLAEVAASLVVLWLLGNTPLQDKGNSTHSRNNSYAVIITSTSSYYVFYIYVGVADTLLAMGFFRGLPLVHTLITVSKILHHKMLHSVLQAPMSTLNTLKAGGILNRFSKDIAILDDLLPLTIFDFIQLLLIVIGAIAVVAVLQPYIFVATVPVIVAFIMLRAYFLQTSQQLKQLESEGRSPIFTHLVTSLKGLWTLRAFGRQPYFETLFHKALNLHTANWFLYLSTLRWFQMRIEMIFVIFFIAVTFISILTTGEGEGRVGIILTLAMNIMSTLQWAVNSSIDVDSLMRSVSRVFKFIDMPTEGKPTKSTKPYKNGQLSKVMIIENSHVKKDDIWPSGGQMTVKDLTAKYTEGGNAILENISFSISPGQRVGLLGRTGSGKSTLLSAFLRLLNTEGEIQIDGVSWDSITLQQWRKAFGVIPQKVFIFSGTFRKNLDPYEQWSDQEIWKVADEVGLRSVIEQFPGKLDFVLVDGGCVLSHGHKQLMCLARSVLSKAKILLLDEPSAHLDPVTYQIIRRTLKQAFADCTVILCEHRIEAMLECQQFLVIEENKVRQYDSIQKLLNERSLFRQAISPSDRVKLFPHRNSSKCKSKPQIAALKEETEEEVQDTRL
Method in brief: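 Human intestinal enteroids incubated 18-24 h at 37 °C with test compound, then loaded with 20 μM methyl oxonol (with CaCC inhibitors). Chloride transport triggered in chloride-free buffer with 10 μM forskolin, 100 μM IBMX, 300 nM Compound III; fluorescence read 15 min, expressed as % of a triple-combination corrector/potentiator control.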

CFTR [2] = biological target: T1, CFTR; assay: Membrane potential dye, Enteroid Assay B; format: cell-based; details: for Ent. B Max Activity: chloride transport as % of triple combination control (Enteroid Assay B); for pEC50: read-out: Ent. B EC50
Method in brief: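 Human intestinal enteroids were treated with compound in maintenance medium for 18-24 h at 37° C, then loaded with methyl oxonol membrane-potential dye (25 min, room temperature). Chloride transport was triggered in chloride-free buffer with 10 μM forskolin, 100 μM IBMX and 300 nM Compound III, fluorescence read 15 min; expressed as % of triple-combination control.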

[3] = Table 7, human enteroid cells, 18-24 hours, acute 10 μM forskolin and 300 nM ivacaftor
[4] = Table 6, human enteroid cells, 18-24 hours, acute 10 μM forskolin and 300 nM ivacaftor
[5] = Table 8, human enteroid cells, 18-24 hours, acute 10 μM forskolin and 300 nM ivacaftor

| Ent. B Max Activity (%) (CFTR [2]; Table 9) | Ent. B Max Activity (CFTR [2]; Table 8) | pEC50 (CFTR [2]; [5]) | SMILES | other results |
| --- | --- | --- | --- | --- |
| ++ (++ is 30-60%) | – | – | CCN1C(=O)c2cccc(c2)S(=O)(=O)Nc2nc(cc(-c3c(C)cccc3C)n2)O[C@@H]2CN(C3CC4(CCCC4)C3)C[C@H]21 [Compound 1192, (3R,7R)-19-(2,6-Dimethylphenyl)-8-ethyl-5-{spiro[3.4]octan-2-yl}-2-oxa-15λ^6-thia-5,8,16,18,21-pentaazatetracyclo[15.3.1.110,14.03,7]docosa-1(20),10(22),11,13,17(21),18-hexaene-9,15,15-trione] | Ent. A Max Activity (%) (CFTR [1]; Table 9): +++ (+++ is >600%); pEC50 (CFTR [1]; Table 9): > 6.00; pEC50 (CFTR [2]; Table 9): > 6.00 |
| – | + (+ is <30%) | 5.52 to 6.00 | Cc1cccc(C)c1-c1cc2nc(n1)NS(=O)(=O)c1cc(nn1C)C(=O)N(Cc1cccnn1)[C@H](CC(C)(C)C)CO2 [Compound 931] | – |
| +++ (+++ is >600%) | – | – | C=C(C)c1cnc(CN2C(=O)c3cccc(c3)S(=O)(=O)Nc3nc(cc(-c4c(C)cccc4C)n3)OC[C@H]2CC(C)(C)C)nc1 [Compound 1078] | pEC50 (CFTR [2]; Table 9): > 6.00 |
| – | +++ (+++ is >60%) | > 6.00 | Cc1cccc(C)c1-c1cc2nc(n1)NS(=O)(=O)c1cccc(c1)C(=O)N(CCCC(C)(C)O)[C@H](CC(C)(C)C)CO2 [Compound 1093] | – |
| – | +++ (+++ is >60%) | > 6.00 | Cc1cccc(C)c1-c1cc2nc(n1)NS(=O)(=O)c1cc(n(C)n1)C(=O)N(Cc1ccccn1)[C@H](CC(C)(C)C)CO2 [Compound 930] | – |
| – | ++ (++ is 30-60%) | > 6.00 | Cc1cccc(C)c1-c1cc2nc(n1)NS(=O)(=O)c1cccc(c1)C(=O)N(Cc1ccc(O)nn1)[C@H](CC(C)(C)C)CO2 [Compound 1097] | – |
| – | +++ (+++ is >60%) | > 6.00 | Cc1cccc(C)c1-c1cc2nc(n1)NS(=O)(=O)c1cccc(c1)C(=O)N(Cc1cccc(CN(C)C)c1)[C@H](CC(C)C)CO2 [Compound 1102] | – |
| – | ++ (++ is 30-60%) | > 6.00 | Cc1ncc(CN2C(=O)c3cc(nn3C)S(=O)(=O)Nc3nc(cc(-c4c(C)cccc4C)n3)OC[C@H]2CC(C)(C)C)cn1 [Compound 925] | – |
| – | + (+ is <30%) | > 6.00 | Cc1cccc(C)c1-c1cc2nc(n1)NS(=O)(=O)c1cc(nn1C)C(=O)N(Cc1ccncn1)[C@H](CC(C)(C)C)CO2 [Compound 932] | – |
| – | +++ (+++ is >60%) | > 6.00 | Cc1cccc(C)c1-c1cc2nc(n1)NS(=O)(=O)c1cccc(c1)C(=O)N([C@H](C)c1ccccc1)[C@H](CC(C)(C)C)CO2 [Compound 1079] | – |
| +++ (+++ is >600%) | – | – | Cc1cnc(CN2C(=O)c3cc(nn3C)S(=O)(=O)Nc3nc(cc(-c4c(C)cccc4C)n3)OC[C@H]2CC(C)(C)C)nc1 [Compound 924] | pEC50 (CFTR [2]; Table 9): > 6.00 |
| – | +++ (+++ is >60%) | > 6.00 | Cc1cccc(C)c1-c1cc2nc(n1)NS(=O)(=O)c1cccc(n1)C(=O)N(Cc1cccnc1)[C@H](CC(C)(C)C)CO2 [Compound 1083] | – |

Continued, compound first:

| SMILES | Ent. B Max Activity (%) (CFTR [2]; Table 9) | Ent. B Max Activity (CFTR [2]; Table 8) | pEC50 (CFTR [2]; [5]) | other results |
| --- | --- | --- | --- | --- |
| Cc1cccc(C)c1-c1cc2nc(n1)NS(=O)(=O)c1cccc(c1)C(=O)N(Cc1ccncc1)[C@H](CC(C)C)CO2 [Compound 1106] | – | – | – | Ent. A Max Activity (CFTR [1]; Table 7): +++ (+++ is >60%); pEC50 (CFTR [1]; [3]): 5.52 to 6.00; Ent. B Max Activity (CFTR [2]; Table 7): ++ (++ is 30-60%); pEC50 (CFTR [2]; [3]): 5.52 to 6.00 |
| COCCN1C(=O)c2cccc(c2)S(=O)(=O)Nc2nc(cc(-c3c(C)cccc3C)n2)OC[C@H]1CC(C)C [Compound 363] | – | – | – | Ent. A Max Activity (CFTR [1]; Table 6): +++ (+++ is >60%); pEC50 (CFTR [1]; [4]): > 6.00; Ent. B Max Activity (CFTR [2]; Table 6): +++ (+++ is >60%); pEC50 (CFTR [2]; [4]): > 6.00 |
| Cc1cccc(C)c1-c1cc2nc(n1)NS(=O)(=O)c1cccc(c1)C(=O)N(Cc1ncccn1)[C@H](CC(C)C)CO2 [Compound 77, (11R)-6-(2,6-Dimethylphenyl)-11-isobutyl-2,2-dioxo-12-(pyrimidin-2-ylmethyl)-9-oxa-2λ^6-thia-3,5,12,19-tetrazatricyclo[12.3.1.14,8]nonadeca-1(18),4(19),5,7,14,16-hexaen-13-one] | – | – | – | Ent. A Max Activity (CFTR [1]; Table 6): +++ (+++ is >60%); pEC50 (CFTR [1]; [4]): > 6.00; Ent. B Max Activity (CFTR [2]; Table 6): +++ (+++ is >60%); pEC50 (CFTR [2]; [4]): > 6.00 |
| COC(=O)Nc1ccc(CN2C(=O)c3cccc(c3)S(=O)(=O)Nc3nc(cc(-c4c(C)cccc4C)n3)OC[C@H]2CC(C)(C)C)cn1 [Compound 402] | – | +++ (+++ is >60%) | > 6.00 | – |
| Cc1cccc(C)c1-c1cc2nc(n1)NS(=O)(=O)c1cccc(c1)C(=O)N(CC(C)(C)C)[C@H](CC(C)C)CO2 [Compound 400] | – | ++ (++ is 30-60%) | > 6.00 | – |
| Cc1cccc(C)c1-c1cc2nc(n1)NS(=O)(=O)c1cccc(c1)C(=O)N(Cc1ccc(CC(C)(C)O)cc1)[C@H](CC(C)(C)C)CO2 [Compound 848] | – | +++ (+++ is >60%) | > 6.00 | – |
| Cc1cccc(C)c1-c1cc2nc(n1)NS(=O)(=O)c1cccc(c1)C(=O)N(CC1CCC(C)(O)CC1)[C@H](CC(C)(C)C)CO2 (single isomer, unassigned) [Compound 149] | – | +++ (+++ is >60%) | > 6.00 | – |
| Cc1cccc(C)c1-c1cc2nc(n1)NS(=O)(=O)c1cccc(c1)C(=O)N(Cc1ccc3c(c1)CC(C)(C)O3)[C@H](CC(C)(C)C)CO2 [Compound 798] | +++ (+++ is >600%) | – | – | pEC50 (CFTR [2]; Table 9): > 6.00 |
| CNC(=O)CCCN1C(=O)c2cccc(c2)S(=O)(=O)Nc2nc(cc(-c3c(C)cccc3C)n2)OC[C@H]1CC(C)C [Compound 406] | – | +++ (+++ is >60%) | 5.52 to 6.00 | – |
| Cc1cccc(C)c1-c1cc2nc(n1)NS(=O)(=O)c1cccc(c1)C(=O)N(CC#N)[C@H](CC(C)C)CO2 [Compound 1104] | – | – | – | Ent. B Max Activity (CFTR [2]; Table 7): +++ (+++ is >60%); pEC50 (CFTR [2]; [3]): > 6.00 |
| CNC(=O)Cc1ccc(CN2C(=O)c3cccc(c3)S(=O)(=O)Nc3nc(cc(-c4c(C)cccc4C)n3)OC[C@H]2CC(C)(C)C)cc1 [Compound 846] | +++ (+++ is >600%) | – | – | pEC50 (CFTR [2]; Table 9): > 6.00 |
| Cc1cccc(C)c1-c1cc2nc(n1)NS(=O)(=O)c1cccc(c1)C(=O)N(Cc1ccc3c(c1)NC(=O)C3)[C@H](CC(C)(C)C)CO2 [Compound 799] | +++ (+++ is >600%) | – | – | pEC50 (CFTR [2]; Table 9): > 6.00 |
| Cc1cccc(C)c1-c1cc2nc(n1)NS(=O)(=O)c1cccc(c1)C(=O)N(CCCC(N)=O)[C@H](CC(C)C)CO2 [Compound 407] | – | – | – | Ent. B Max Activity (CFTR [2]; Table 7): +++ (+++ is >60%); pEC50 (CFTR [2]; [3]): 5.52 to 6.00 |
| Cc1cccc(C)c1-c1cc2nc(n1)NS(=O)(=O)c1cccc(c1)C(=O)N(CCN(C)C)[C@H](CC(C)C)CO2 [Compound 412] | – | – | – | Ent. B Max Activity (CFTR [2]; Table 7): +++ (+++ is >60%); pEC50 (CFTR [2]; [3]): > 6.00 |
| Cc1cccc(C)c1-c1cc2nc(n1)NS(=O)(=O)c1cccc(c1)C(=O)N(CCCO)[C@H](CC(C)C)CO2 [Compound 96, (11R)-6-(2,6-Dimethylphenyl)-12-(3-hydroxypropyl)-11-(2-methylpropyl)-9-oxa-2λ^6-thia-3,5,12,19-tetraazatricyclo[12.3.1.14,8]nonadeca-1(18),4,6,8(19),14,16-hexaene-2,2,13-trione] | – | +++ (+++ is >60%) | > 6.00 | – |
| Cc1cccc(C)c1-c1cc2nc(n1)NS(=O)(=O)c1cccc(c1)C(=O)N(C)CC(c1ccc(CC3(C(F)(F)F)CC3)cn1)O2 (single isomer, unassigned) [Compound 105, 6-(2,6-dimethylphenyl)-12-methyl-10-(5-{[1-(trifluoromethyl)cyclopropyl]methyl}pyridin-2-yl)-9-oxa-2λ^6-thia-3,5,12,19-tetraazatricyclo[12.3.1.14,8]nonadeca-1(17),4(19),5,7,14(18),15-hexaene-2,2,13-trione] | – | + (+ is <30%) | > 6.00 | – |
| Cc1cccc(C)c1-c1cc2nc(n1)NS(=O)(=O)c1cccc(c1)C(=O)N(CC(C)(C)C)[C@H](CC(C)(C)C)CO2 [Compound 399] | +++ (+++ is >600%) | – | – | pEC50 (CFTR [2]; Table 9): > 6.00 |
| Cc1cccc(C)c1-c1cc2nc(n1)NS(=O)(=O)c1cccc(c1)C(=O)N(C[C@H]1CC[C@@H](C(C)(C)O)CC1)[C@H](CC(C)(C)C)CO2 [Compound 796] | +++ (+++ is >600%) | – | – | pEC50 (CFTR [2]; Table 9): > 6.00 |
| Cc1cccc(C)c1-c1cc2nc(n1)NS(=O)(=O)c1cccc(c1)C(=O)N(Cc1ccc3c(c1)C(=O)NC3)[C@H](CC(C)(C)C)CO2 [Compound 792] | +++ (+++ is >600%) | – | – | pEC50 (CFTR [2]; Table 9): > 6.00 |
| Cc1cccc(C)c1-c1cc2nc(n1)NS(=O)(=O)c1cccc(c1)C(=O)N(Cc1ccc(C3CNCN3C)cc1)[C@H](CC(C)(C)C)CO2 (some centres unmarked) [Compound 316] | +++ (+++ is >600%) | – | – | – |
